This is an account of results in patent US20240246977A1, “DEGRADATION OF BRUTON'S TYROSINE KINASE (BTK) BY CONJUGATION OF BTK INHIBITORS WITH E3 LIGASE LIGAND AND METHOD OF USE” (BeiGene Switzerland GmbH, priority 2021, published 2024).

Experiment [1] concerns HEK-293 cells. As to the kind of experiment: HEK-293 cytotoxicity detection (CellTiter-Glo). The experiment is classed as cell-based. Conditions: 72 h incubation, CellTiter-Glo luminescence, read-out: HEK293. As to the method: HEK-293 cells were treated with compounds diluted in 0.2% DMSO, dilution was done according to the following protocol: (1) making 500× stock solution in DMSO from 5 mM by 4-fold dilution, total 8 doses were included; (2) making 2× solution in cell culture medium by transferring 0.5 ul 500× stock solution into 125 ul medium; (3) adding 50 ul of 2× solution to cells for incubation of 72 h.
25 μl of the CellTiter-Glo®Reagent [(Promega)—Cat No. G7572] was added to each well in the 96-well plate. The contents were mixed for 2 minutes on an orbital shaker to induce cell lysis. The plate was then allowed to incubate at room temperature for 10 minutes to stabilize luminescent signal. Luminescence was recorded on BMG PheraStar with luminescence protocol.
The inhibition percentage of the compound was calculated by the following equation: Inhibition percentage of Compound=100−100×(Signal-low control)/(High control-low control), wherein signal=each test compound group
High control=Cell group with added DMSO and without compound, indicating cells proliferation with no inhibition;
Imax is the maximum percentage of inhibition.
The IC50 value of a compound can be obtained by fitting the following equation
(§1) Wherein, X and Y are known values, and IC50, Hillslope, Top and Bottom are the parameters obtained by fitting with software. Y is the inhibition percentage (calculated from the equation), X is the concentration of the compound; IC50 is the concentration of the compound when the 50% inhibition is reached. The smaller the IC50 value is, the stronger the inhibitory ability of the compound is. Vice versa, the higher the IC50 value is, the weaker the ability the inhibitory ability of the compound is; Hillslope represents the slope of the fitted curve, generally around 1*; Bottom represents the minimum value of the curve obtained by data fitting, which is generally 0%±20%; Top represents the maximum value of the curve obtained by data fitting, which is generally 100%±20%. The experimental data were fitted by calculating and analyzing with Dotmatics data analysis software.
For orientation: In ATP-based viability assays light output follows the ATP content of the culture.

The target in experiment [2] is BTK (Homo sapiens, UniProt Q06187). As to the kind of experiment: BTK cell degradation in TMD-8 cells, HTRF assay. Further details: endogenous in cells; host or cells: TMD-8 cells. It is filed as cell-based. Conditions: 6 h treatment, IC50 (DC50) of BTK degradation. As to the method:
TMD-8 cells were treated with compounds diluted in 0.2% DMSO, dilution was done according to the following protocol: (1) making 500× stock solution in DMSO from 1 mM by 6-fold dilution, total 8 doses were included; (2) making 2× solution in cell culture medium by transferring 0.5 μl 500× stock solution into 125 μl medium; (3) adding 15 μl of 2× solution to cells for incubation of 6 h.
After 6 h treatment, 10 μl 14×lysis buffer was added to each well; the plate was sealed and incubated for 30 min at room temperature on a plate shaker; Once the cells was lysed, 16 μL of cell lysate were transferred to a PE 384-well HTRF detection plate; 4 μL of pre-mixed HTRF antibodies were added to each well; the plate was covered with a plate sealer, and then spinned at 1000 rpm for 1 min, then incubated overnight at room temperature; the results were read on BMG PheraStar with HTRF protocol (337 nm-665 nm-620 nm).
The inhibition (degradation) percentage of the compound was calculated by the following equation: Inhibition percentage of Compound=100−100×(Signal-low control)/(High control-low control), wherein signal=each test compound group
High control=Cell group with added DMSO and without compound, indicating microplate readings without BTK degradation;
Dmax is the maximum percentage of inhibition (degradation).
The IC50 (DC50) value of a compound can be obtained by fitting the following equation
Y=Bottom+(TOP−Bottom)/(1+((IC50/X)^hillslope))
as §1, with “wherein,” for “Wherein,”
In general terms: TR-FRET usually uses a lanthanide donor and a delayed reading to cut background.

SMILES strings stand for the structures. Read-outs that look alike come from different tables or passages of the source.

Chain of BTK (Q06187 whole entry): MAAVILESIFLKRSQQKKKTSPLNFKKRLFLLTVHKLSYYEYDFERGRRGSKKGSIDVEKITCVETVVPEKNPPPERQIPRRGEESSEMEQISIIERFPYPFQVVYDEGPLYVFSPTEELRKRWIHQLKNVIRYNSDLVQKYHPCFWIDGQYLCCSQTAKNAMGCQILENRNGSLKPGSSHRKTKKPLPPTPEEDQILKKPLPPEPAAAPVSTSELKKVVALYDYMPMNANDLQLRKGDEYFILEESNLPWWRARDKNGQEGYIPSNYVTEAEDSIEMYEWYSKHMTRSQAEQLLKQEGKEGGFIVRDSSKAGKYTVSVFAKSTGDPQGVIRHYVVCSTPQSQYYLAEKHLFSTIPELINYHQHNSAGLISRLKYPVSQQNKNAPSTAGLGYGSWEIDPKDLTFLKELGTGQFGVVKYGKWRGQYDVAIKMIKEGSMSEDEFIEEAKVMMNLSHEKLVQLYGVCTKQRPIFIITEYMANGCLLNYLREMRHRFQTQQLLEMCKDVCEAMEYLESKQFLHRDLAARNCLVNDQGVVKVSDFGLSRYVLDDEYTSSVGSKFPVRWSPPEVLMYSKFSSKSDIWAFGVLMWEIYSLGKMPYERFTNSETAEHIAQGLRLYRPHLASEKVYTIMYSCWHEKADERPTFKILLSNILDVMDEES

What is called DC50 is the midpoint of the concentration-degradation curve. Read a high DC50 as degradation only at high concentration. On to `Cc1cccc(NC(=O)c2ncc(-c3nn4c(c3C(N)=O)Nc3ccc(N5CCN(C6CC(c7ccc(C8CCC(=O)NC8=O)cc7)C6)CC5)cc3CC4)cc2C)n1` (stereo in doubt) [Example B35, (S)-7-(4-(3-(4-(2,6-dioxopiperidin-3-yl)phenyl)cyclobutyl)piperazin-1-yl)-2-(5-methyl-6-((6-methylpyridin-2-yl)carbamoyl)pyridin-3-yl)-9,10-dihydro-4H-benzo[d]pyrazolo[1,5-a][1,3]diazepine-3-carboxamide], for which the IC50 in experiment [1] was found to be 97.4 nM. The compound also came in with a DC50 in experiment [2] of 10.6 nM. With `NC(=O)c1c(-c2ccc(Oc3ccccc3)cc2)nn2c1Nc1ccc(NC(=O)C3CCN(c4ccc5c(c4)C(=O)N(C4CCC(=O)NC4=O)C5=O)CC3)cc1CC2` (stereo not shown) [Example A1, 7-(1-(2-(2,6-dioxopiperidin-3-yl)-1,3-dioxoisoindolin-5-yl)piperidine-4-carboxamido)-2-(4-phenoxyphenyl)-9,10-dihydro-4H-benzo[d]pyrazolo[1,5-a][1,3]diazepine-3-carboxamide], in experiment [1] (Homo sapiens, 72 h), the IC50 was found to be 417 nM. The compound also yielded a DC50 in experiment [2] of 3 nM. For `NC(=O)c1c(-c2ccc(Oc3ccccc3)cc2)nn2c1Nc1ccc(NC(=O)COCCOCCOCCOCCNc3cccc4c3C(=O)N(C3CCC(=O)NC3=O)C4=O)cc1CC2` (stereo not shown) [Example A2, 7-(14-((2-(2,6-dioxopiperidin-3-yl)-1,3-dioxoisoindolin-4-yl)amino)-3,6,9,12-tetraoxatetradecanamido)-2-(4-phenoxyphenyl)-9,10-dihydro-4H-benzo[d]pyrazolo[1,5-a][1,3]diazepine-3-carboxamide], in that order: 557 nM and 1.85 nM.

As for `NC(=O)c1c(-c2ccc(Oc3ccccc3)cc2)nn2c1Nc1cc(N3CCN(CC4CCN(c5ccc6c(c5)C(=O)N(C5CCC(=O)NC5=O)C6=O)CC4)CC3)ccc1CC2` (stereo not shown) [Example A15, 6-(4-((1-(2-(2,6-dioxopiperidin-3-yl)-1,3-dioxoisoindolin-5-yl)piperidin-4-yl)methyl)piperazin-1-yl)-2-(4-phenoxyphenyl)-9,10-dihydro-4H-benzo[d]pyrazolo[1,5-a][1,3]diazepine-3-carboxamide], the DC50 in experiment [2] worked out at 27.9 nM. For `NC(=O)c1c(-c2ccc(Oc3ccccc3)cc2)nn2c1Nc1ccc(NCC3CCN(c4cc5c(cc4F)C(=O)N(C4CCC(=O)NC4=O)C5=O)CC3)cc1CC2` (stereo not shown) [Example A16, 7-(((1-(2-(2,6-dioxopiperidin-3-yl)-6-fluoro-1,3-dioxoisoindolin-5-yl)piperidin-4-yl)methyl)amino)-2-(4-phenoxyphenyl)-9,10-dihydro-4H-benzo[d]pyrazolo[1,5-a][1,3]diazepine-3-carboxamide], the DC50 in experiment [2] was determined as 9.71 nM. Against the preceding compound, the DC50 is about 2.9-fold lower. For `NC(=O)c1c(-c2ccc(Oc3ccccc3)cc2)nn2c1Nc1cc(C(=O)NC3CCN(CC4CCN(c5cc6c(cc5F)C(=O)N(C5CCC(=O)NC5=O)C6=O)CC4)CC3)ccc1CC2` (stereo not shown) [Example A17, N^6-(1-((1-(2-(2,6-dioxopiperidin-3-yl)-6-fluoro-1,3-dioxoisoindolin-5-yl)piperidin-4-yl)methyl)piperidin-4-yl)-2-(4-phenoxyphenyl)-9,10-dihydro-4H-benzo[d]pyrazolo[1,5-a][1,3]diazepine-3,6-dicarboxamide], the DC50 in experiment [2] turned out to be 14.4 nM. As for `NC(=O)c1c(-c2ccc(Oc3ccccc3)cc2)nn2c1Nc1cc(C(=O)N3CCN(CC4CCN(c5ccc6c(c5)C(=O)N(C5CCC(=O)NC5=O)C6=O)CC4)CC3)ccc1CC2` (stereo not shown) [Example A19, 6-(4-((1-(2-(2,6-dioxopiperidin-3-yl)-1,3-dioxoisoindolin-5-yl)piperidin-4-yl)methyl)piperazine-1-carbonyl)-2-(4-phenoxyphenyl)-9,10-dihydro-4H-benzo[d]pyrazolo[1,5-a][1,3]diazepine-3-carboxamide], the DC50 in experiment [2] came to 17.9 nM. `NC(=O)c1c(-c2ccc(Oc3ccccc3)cc2)nn2c1Nc1ccc(N3CCN(CCC4CCN(c5ccc(N6CCC(=O)NC6=O)cc5)CC4)CC3)cc1CC2` [Example A22, 7-(4-(2-(1-(4-(2,4-dioxotetrahydropyrimidin-1(2H)-yl)phenyl)piperidin-4-yl)ethyl)piperazin-1-yl)-2-(4-phenoxyphenyl)-9,10-dihydro-4H-benzo[d]pyrazolo[1,5-a][1,3]diazepine-3-carboxamide] came in with a DC50 in experiment [2] of 1.31 nM.

`CC(C)(C)c1ccc(Oc2ccc(-c3nn4c(c3C(N)=O)Nc3ccc(C5CCN(CCC6CCN(c7ccc(N8CCC(=O)NC8=O)cc7)CC6)CC5)cc3CC4)cc2)cc1` [Example A29, 2-(4-(4-(tert-butyl)phenoxy)phenyl)-7-(1-(2-(1-(4-(2,4-dioxotetrahydropyrimidin-1(2H)-yl)phenyl)piperidin-4-yl)ethyl)piperidin-4-yl)-9,10-dihydro-4H-benzo[d]pyrazolo[1,5-a][1,3]diazepine-3-carboxamide] gave a DC50 in experiment [2] of 16.3 nM.

With `Cc1cccc(NC(=O)c2ccc(-c3nn4c(c3C(N)=O)Nc3ccc(N5CCN(CC6CCN(c7ccc(CN8CCC(=O)NC8=O)cc7)CC6)CC5)cc3CC4)c(F)c2C)n1` [Example B69, 7-(4-((1-(4-((2,4-dioxotetrahydropyrimidin-1(2H)-yl)methyl)phenyl)piperidin-4-yl)methyl)piperazin-1-yl)-2-(2-fluoro-3-methyl-4-((6-methylpyridin-2-yl)carbamoyl)phenyl)-9,10-dihydro-4H-benzo[d]pyrazolo[1,5-a][1,3]diazepine-3-carboxamide], half-maximal degradation in experiment [2] (DC50) was put at 8.05 nM. Against the preceding compound, the DC50 is about 2-fold lower.

In turn, `Cc1cccc(NC(=O)c2ccc(-c3nn4c(c3C(N)=O)Nc3ccc(N5CCN(CC6CCN(c7cccc(CN8CCC(=O)NC8=O)c7)CC6)CC5)cc3CC4)c(F)c2C)n1` [Example B70, 7-(4-((1-(3-((2,4-dioxotetrahydropyrimidin-1(2H)-yl)methyl)phenyl)piperidin-4-yl)methyl)piperazin-1-yl)-2-(2-fluoro-3-methyl-4-((6-methylpyridin-2-yl)carbamoyl)phenyl)-9,10-dihydro-4H-benzo[d]pyrazolo[1,5-a][1,3]diazepine-3-carboxamide] gave a 50% degradation concentration (DC50) in experiment [2] of 8.66 nM. This DC50 and that of the compound before are within 1.5-fold of each other. Take `Cc1c(C(=O)Nc2cn(C)cn2)ccc(-c2nn3c(c2C(N)=O)Nc2ccc(N4CCN(CCc5cc(F)c([C@H]6CCC(=O)NC6=O)c(F)c5)CC4)cc2CC3)c1F` [Example B89, (R)-7-(4-(4-(2,6-dioxopiperidin-3-yl)-3,5-difluorophenethyl)piperazin-1-yl)-2-(2-fluoro-3-methyl-4-((1-methyl-1H-imidazol-4-yl)carbamoyl)phenyl)-9,10-dihydro-4H-benzo[d]pyrazolo[1,5-a][1,3]diazepine-3-carboxamide]: the IC50 in experiment [1] (Homo sapiens, 72 h) is greater than 10000 nM. Turning to `Cc1c(C(=O)Nc2cscn2)ccc(-c2nn3c(c2C(N)=O)Nc2ccc(N4CCN(CCc5cc(F)c([C@H]6CCC(=O)NC6=O)c(F)c5)CC4)cc2CC3)c1F` [Example B95, (R)-7-(4-(4-(2,6-dioxopiperidin-3-yl)-3,5-difluorophenethyl)piperazin-1-yl)-2-(2-fluoro-3-methyl-4-(thiazol-4-ylcarbamoyl)phenyl)-9,10-dihydro-4H-benzo[d]pyrazolo[1,5-a] [1,3]diazepine-3-carboxamide], the DC50 in experiment [2] was determined as 1.7 nM. This counts as single-digit nanomolar.
